Test results published in patent publication US11452717B2, “Small molecule activators of nicotinamide phosphoribosyltransferase (NAMPT) and uses thereof” (Sanford Burnham Prebys Medical Discovery Institute, priority 2017, dated 2022).

target: NAMPT enzyme (Homo sapiens (Human), UniProt P43490); assay: Enzyme Assay and NMN Detection (NAMPT reaction, fluorescence detection of NMN); format: biochemical; conditions: Table B-1; NAMPT activation, NMN formation
How it was run: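 Reaction in 50 mM HEPES pH 7.5, 5 mM MgCl2, 0.1% Prionex, 0.005% Tween 20, 1 mM TCEP at room temperature, with 16 nM NAMPT, 120 uM ATP, 5 uM nicotinamide, 6.25 uM PRPP, 0.04 U/ml pyrophosphatase for 2 h. Stopped with acetophenone/KOH then formic acid; NMN quantified by fluorescence (ex380/em460) against calibration curve.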

Sequence of NAMPT enzyme (P43490 whole entry, species assumed): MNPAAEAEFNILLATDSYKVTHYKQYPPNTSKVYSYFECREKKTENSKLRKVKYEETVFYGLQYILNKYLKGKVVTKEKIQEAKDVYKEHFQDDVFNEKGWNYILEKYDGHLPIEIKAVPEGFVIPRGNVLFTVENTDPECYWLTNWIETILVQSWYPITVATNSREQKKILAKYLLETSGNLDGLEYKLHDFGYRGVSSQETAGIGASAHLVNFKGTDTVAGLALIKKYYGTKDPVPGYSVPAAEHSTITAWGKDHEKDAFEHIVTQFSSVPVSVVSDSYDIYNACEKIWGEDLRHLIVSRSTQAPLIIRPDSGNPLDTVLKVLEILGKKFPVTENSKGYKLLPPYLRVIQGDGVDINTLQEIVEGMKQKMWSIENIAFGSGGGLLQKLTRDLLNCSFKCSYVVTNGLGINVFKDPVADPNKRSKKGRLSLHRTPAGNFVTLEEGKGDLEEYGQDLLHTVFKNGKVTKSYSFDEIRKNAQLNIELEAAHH

EC50, < 0.1 µM:
COc1ccccc1CNS(=O)(=O)c1ccc(NC(=O)NCc2cn[nH]c2)cc1 [N-(2-Methoxy-benzyl)-4-[3-(1H-pyrazol-4-ylmethyl)-ureido]-benzenesulfonamide]

same assay, conditions: Table B-2; NAMPT activation, NMN formation

EC50, > 20 µM:
O=C(NCc1ccncc1)Nc1ccc(C(=O)NCc2ccccc2Cl)cc1 [N-(2-chlorobenzyl)-4-(3-(pyridin-4-ylmethyl)ureido)benzamide]
O=C(NCc1ccncc1)Nc1ccc(C(=O)NCCO)cc1 [N-(2-hydroxyethyl)-4-(3-(pyridin-4-ylmethyl)ureido)benzamide]
COc1ccccc1CNC(=O)c1ccc(NC(=O)NCc2ccncc2)cc1 [N-(2-methoxybenzyl)-4-(3-(pyridin-4-ylmethyl)ureido)benzamide]

EC50, 2 to 5 µM:
O=C(NCc1ccncc1)Nc1ccc(S(=O)(=O)NCCO)cc1 [N-(2-Hydroxy-ethyl)-4-(3-pyridin-4-ylmethyl-ureido)-benzenesulfonamide]
O=C(NCc1ccncc1)Nc1ccc(S(=O)(=O)NCCN2CCCCC2)cc1 [N-(2-Piperidin-1-yl-ethyl)-4-(3-pyridin-4-ylmethyl-ureido)-benzenesulfonamide]
O=C(NCc1ccncc1)Nc1ccc(C(=O)NCc2ccccc2F)cc1 [N-(2-fluorobenzyl)-4-(3-(pyridin-4-ylmethyl)ureido)benzamide]

EC50, < 0.1 µM:
CN(C)c1ccccc1CNS(=O)(=O)c1ccc(NC(=O)NCc2ccncc2)cc1 [N-(2-Dimethylamino-benzyl)-4-(3-pyridin-4-ylmethyl-ureido)-benzenesulfonamide]
CN(Cc1ccccc1F)S(=O)(=O)c1ccc(NC(=O)NCc2ccncc2)cc1 [N-(2-Fluoro-benzyl)-N-methyl-4-(3-pyridin-4-ylmethyl-ureido)-benzenesulfonamide]
COc1ccccc1CN(C)S(=O)(=O)c1ccc(NC(=O)NCc2ccncc2)cc1 [N-(2-Methoxy-benzyl)-N-methyl-4-(3-pyridin-4-ylmethyl-ureido)-benzenesulfonamide]

EC50, 0.1 to 2 µM:
N#Cc1ccccc1CNS(=O)(=O)c1ccc(NC(=O)NCc2ccncc2)cc1 [N-(2-Cyano-benzyl)-4-(3-pyridin-4-ylmethyl-ureido)-benzenesulfonamide]
CN(C)CCNS(=O)(=O)c1ccc(NC(=O)NCc2ccncc2)cc1 [N-(2-Dimethylamino-ethyl)-4-(3-pyridin-4-ylmethyl-ureido)-benzenesulfonamide]
CN(CCO)S(=O)(=O)c1ccc(NC(=O)NCc2ccncc2)cc1 [N-(2-Hydroxy-ethyl)-N-methyl-4-(3-pyridin-4-ylmethyl-ureido)-benzenesulfonamide]
COCCNS(=O)(=O)c1ccc(NC(=O)NCc2ccncc2)cc1 [N-(2-Methoxy-ethyl)-4-(3-pyridin-4-ylmethyl-ureido)-benzenesulfonamide]
COc1ccccc1NS(=O)(=O)c1ccc(NC(=O)NCc2ccncc2)cc1 [N-(2-Methoxy-phenyl)-4-(3-pyridin-4-ylmethyl-ureido)-benzenesulfonamide]
Cc1ccccc1CNS(=O)(=O)c1ccc(NC(=O)NCc2ccncc2)cc1 [N-(2-Methyl-benzyl)-4-(3-pyridin-4-ylmethyl-ureido)-benzenesulfonamide]
O=C(NCc1ccncc1)Nc1ccc(S(=O)(=O)NCCN2CCOCC2)cc1 [N-(2-Morpholin-4-yl-ethyl)-4-(3-pyridin-4-ylmethyl-ureido)-benzenesulfonamide]
O=C(NCc1ccncc1)Nc1ccc(C(=O)Nc2ccccc2Cl)cc1 [N-(2-chlorophenyl)-4-(3-(pyridin-4-ylmethyl)ureido)benzamide]
O=C(NCc1ccncc1)Nc1ccc(S(=O)(=O)NCc2ccccc2F)cc1 [N-(2-fluorobenzyl)-4-(3-(pyridin-4-ylmethyl)ureido)benzenesulfonamide]
O=C(NCc1ccncc1)Nc1ccc(C(=O)Nc2ccccc2F)cc1 [N-(2-fluorophenyl)-4-(3-(pyridin-4-ylmethyl)ureido)benzamide]
